According to patent EP4556465A1, “NOVEL BICYCLIC PD-L1 INHIBITORS, PREPARATION METHODS THEREFOR AND MEDICINAL USES THEREOF” (priority 2022, dated 2024):

Legend:
hPD-1/hPD-L1 = target: T1, hPD-1/hPD-L1 (Homo sapiens, UniProt Q9NZQ7); experiment: PD-1/PD-L1 binding assay kit (CISBIO), HTRF assay of PD-1/PD-L1 protein-protein interaction; conditions: for inhibitory activity of PD-1/PD-L1 protein-protein interaction compared with BMS-202: HTRF, comparison with BMS-202
T1 construct: purchased CISBIO
Procedure: Experimental objective: the activity of the compounds of formula (I) to inhibit the PD-1/PD-L1 interaction was tested by using a PD-1/PD-L1 binding assay kit (CISBIO).
Experimental principle: HTRF (Homogeneous Time-Resolved Fluorescence) is a technique used to detect substances to be tested in pure liquid phase systems. It primarily utilizes energy transfer of two fluorescent groups, which are divided into an energy donor europium (Eu^+) and an energy acceptor. When the donor is externally excited (e.g., a flash lamp or laser), the energy can be resonantly transferred to the acceptor if the donor is close enough to the acceptor, and the acceptor is excited at a specific wavelength. By using the HTRF technology, the assay enables simple and rapid characterization of compounds and antibody blockers in a high-throughput format. By using anti-Tag1 labeled with Eu^+ (Europium) (the HTRF energy donor) and anti-Tag2 labeled with XL665 (the HTRF energy acceptor), the interaction between PD-L1 and PD-1 can be detected. PD-L1 protein and PD-1 protein are labeled with Tag1 and Tag2, respectively, and Eu^+ and XL665 bind to PD-L1 and PD-1, respectively, through antibodies to form complexes. […] This specific signal is directly proportional to the degree of PD1/PD-L1 interaction.
Experimental materials: kit: PD-1/PD-L1 binding assay kits purchased from CISBIO; and 96-well plate: purchased from CISBIO.
Test instrument: Perkin Elmer, model: EnVision.
Test compounds: the compounds in formula (I).
Experimental procedure: PD-1/PD-L1 binding assay kits were used. […] The plates were sealed by using microplate sealers, centrifuging was performed at 1000 rpm for 1 min, and incubation was performed at room temperature for 15 min. The Anti-Tag-Eu^3+ and Anti-tag-XL665 which were diluted with Buffer were then mixed in equal volumes, then 10 µL of the mixed solution was added to each well, the sealed plates were centrifuged at 1000 rpm for 1 min, and incubation was performed at room temperature for 2 h. […] IC50 of the compounds was calculated by using Graphpad.

[1] = Acute toxicity test, single oral gavage; assay type: in vivo; conditions: both sexes, rat, in vivo, po, SD rats, read-out: maximum tolerated dose (MTD)
Procedure: (§1) • Animal species and number: SD rats; 6 rats in each group (half male and half female); Mode of administration: oral gavage; […]; • Administration frequency: administration once.
(§2) Side-cage observation on the day of administration (D1): frequency and time of observation: side-cage observation of acute toxicity reactions was performed for 4 h after administration of animals in each group, and detailed clinical observations were performed on animals with apparent abnormal manifestations. Mortality, morbidity, respiration, secretion, feces, and diet, water drinking, etc. were observed, and changes in body weight of rats during administration were recorded. Detailed clinical observations include, but are not limited to, behavioral activities, skin, hair, eyes, ears, noses, abdomens, external genitalia, anuses, limbs, feet, and breathing. The animals in each group were euthanized at the end of the observation period, and all animals were dissected and gross observed.

SD rats [2] = experiment: Acute toxicity test, single oral gavage; assay type: in vivo; conditions: 500 mg/kg, 1000 mg/kg and 2000 mg/kg
Procedure: as §1, §2

SD rats [3] = experiment: Safety test after repeated administration for 14 days; assay type: in vivo; conditions: oral gavage 300 mg/kg once a day for 14 days
Procedure: • Animal species and number: SD rats; 6 rats in each group (half male and half female); Mode of administration: oral gavage; […]; • Administration frequency: administration once a day for 14 days.
as §2, with “Side-cage” for “Side-cage observation on the day of administration (D1): frequency and time of observation: side-cage”, “administration,” for “administration of animals in each group,”, “manifestations. General clinical observations included observation twice a day during the test (observation once in the morning and observation once in the afternoon).” for “manifestations.”, “administration,” for “the observation period,”

[4] = system: breast cancer tumor cells 4T1; conditions: 10 mg/kg, i.g., QD×21 days; for Tumor inhibition rate / tumor-inhibiting efficacy: 4T1 subcutaneous tumor
Procedure: Subsequently, each group of animals was dosed, and the day of first administration was defined as test day 1; • Administration frequency: once a day; • General state observations: observation time and frequency: once a day; observation indicators or content: including, but not limited to, local administration of the animals, appearance signs, general behavioral activity, mental status, death, and other abnormal manifestations. The animals were euthanized at the end of the test. • Calculation of tumor volume: V=1/2×long diameter×short diameter^2 (mm^3).

T1 sequence (Q9NZQ7 19-238 limits assumed): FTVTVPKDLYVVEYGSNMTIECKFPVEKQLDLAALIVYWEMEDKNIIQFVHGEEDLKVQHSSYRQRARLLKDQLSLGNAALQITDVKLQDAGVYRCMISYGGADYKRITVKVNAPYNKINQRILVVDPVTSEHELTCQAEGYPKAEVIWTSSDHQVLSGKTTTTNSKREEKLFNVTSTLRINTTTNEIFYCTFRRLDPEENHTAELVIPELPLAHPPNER

| SMILES | IC50 (hPD-1/hPD-L1) [nM] | inhibitory activity of PD-1/PD-L1 protein-protein interaction compared with BMS-202 (hPD-1/hPD-L1) | MTD [1] [mg/kg] | gross observation, test sample-related changes (SD rats [2]) | mortality or moribundity (SD rats [2]) | clinical observations (water intake, food intake, activity, body weight) (SD rats [3]) | general state of tumor-bearing animals during administration (water and food intake, activity, body weight, toxicity) [4] | Tumor inhibition rate [4] | tumor-inhibiting efficacy [4] |
| --- | --- | --- | --- | --- | --- | --- | --- | --- | --- |
| Fc1ccccc1-c1cccc(COc2ccc3c(n2)CCNC3)c1Cl [I-D-27, 2-((2-chloro-2'-fluoro-[1,1'-biphenyl]-3-yl)methoxy)-5,6,7,8-tetrahydro-1,6-naphthyridine] | 10.1 | superior to that of the compound BMS-202 | ≥ 2000 | No test sample-related changes were observed grossly | No mortality or moribundity was observed | normal water intake and food intake, normal activity, and normal body weight, with no significant abnormalities | normal water intake and food intake, normal activity, normal body weight, and no toxicity manifestations | +++ ("+++" indicates a tumor inhibition rate of more than 60%) | significant tumor-inhibiting efficacy |
| OCCN1CCc2nc(OCc3cccc(-c4ccccc4F)c3Cl)ccc2C1 [I-D-18, 2-(2-((2-chloro-2'-fluoro-[1,1'-biphenyl]-3-yl)methoxy)-7,8-dihydro-1,6-naphthyridin-6(5H)-yl)ethan-1-ol] | 16.3 | superior to that of the compound BMS-202 |  | No test sample-related changes were observed grossly | No mortality or moribundity was observed | normal water intake and food intake, normal activity, and normal body weight, with no significant abnormalities | normal water intake and food intake, normal activity, normal body weight, and no toxicity manifestations | +++ ("+++" indicates a tumor inhibition rate of more than 60%) | significant tumor-inhibiting efficacy |
| O=C(O)CN1CCc2nc(OCc3cccc(-c4ccccc4F)c3Cl)ccc2C1 [I-D-26, 2-(2-((2-chloro-2'-fluoro-[1,1'-biphenyl]-3-yl)methoxy)-7,8-dihydro-1,6-naphthyridin-6(5H)-yl)acetic acid] |  |  | ≥ 2000 | No test sample-related changes were observed grossly | No mortality or moribundity was observed | normal water intake and food intake, normal activity, and normal body weight, with no significant abnormalities |  | +++ ("+++" indicates a tumor inhibition rate of more than 60%) | significant tumor-inhibiting efficacy |
